# Experimental data taken from patent US20200339544A1 (JOINT STOCK COMPANY "BIOCAD", priority 2017, published 2020).
# Read-outs that look alike come from different tables or passages of the source.
# What was measured:
# [1] = tested on: HCC827 (lung adenocarcinoma, SM, exon19delE746-A750); assay: Antiproliferative activity on HCC827 cells (Alamar Blue); type: cell-based; conditions: Homo sapiens, antiproliferative test
# Description: Antiproliferative activity of EGFR inhibitors (Tables 15 and 16) was measured in cell-based bioassay on continuous epithelial cell cultures: A549 (lung adenocarcinoma, ATCC® CRM-CCL-185™—WT), HCC827 (lung adenocarcinoma, ATCC® CRL-2868™—SM (SingleMutantEGFR, exon19delE746-A750)) and H1975 (lung adenocarcinoma, ATCC® CRL-5908™—DM (DoubleMutantEGFR, L828R/T790M)) using cell viability reagent Alamar Blue (ThermoFisher, # DAL1100). Cells were cultured in 10% FBS-supplemented (Gibco, #16140071) RPMI-1640 (PanEco, S330p) for at least 1 passage after thawing, washed with PBS and passaged in 96-well culture plates (3599, Corning) with RPMI-1640 growth medium supplemented with 2% FBS in an amount of 5*10^3 cells/well for A549, 10*10^3 cells/well for HCC827 and 15*10^3 cells/well for H1975 in 100 μL, and incubated at 37° C. in an incubator (Thermo Forma, USA) under 5% of CO2 for 16-18 h for cell attachment.
# The test compounds were dissolved in DMSO in the selected range of concentrations and transferred to RPMI-1640 medium (PanEco, S330p) supplemented with 2% FBS. After adding 50 μl of the prepared dilutions to the cells, the incubation mixture contained the final concentrations of the test substances and no more than 1% DMSO. The plates were Incubated at 37° C. for 72 h. After incubation, 15 μl of Alamar Blue vital dye (ThermoFisher, # DAL1100) was added to each well. The plates were shaken on an orbital shaker (Biosan, Latvia) and further incubated for 3-5 h in a CO2 incubator (Thermo Forma, USA). Number of living cells was estimated using a plate spectrophotometer Infinite M200Pro, (Tecan, Switzerland) measuring fluorescent signal at the excitation wavelength (λEx) of 540 nm and emission wavelength (λEm) of 590 nm.
# IC50 was calculated using Magellan 7.2 software (Tecan, Switzerland) approximating experimental points by four-parameter logistic model with the optimization by Levenberg-Marquardt.
# [2] = target: T1, WT EGFR (Wild-Type EGFR) (Homo sapiens, UniProt P00533); assay: Inhibition of WT EGFR kinase activity (ADP-Glo); type: biochemical
# T1 construct: purchased SignalChem
# Method in brief: (§1)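 Luminescent ADP-Glo readout was used for both wild-type and L858R/T790M EGFR, each run 180 minutes at 37° C. Reactions used a solution of 50 μM ATP with 0.5 mg/mL peptide substrate. Four-parameter logistic curves gave IC50.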
# [3] = target: T2, DM EGFR (DoubleMutantEGFR, L828R/T790M) (Homo sapiens, UniProt P00533, L858R/T790M); assay: Inhibition of DM EGFR kinase activity (ADP-Glo); type: biochemical; conditions: for IC50: inhibition of kinase activity, EGFR DM (L828R/T790M); for SI, IC50(WT)/IC50(DM): selectivity index, kinase EGFR WT vs EGFR DM
# T2 construct: purchased SignalChem
# Method in brief: as §1
# [4] = tested on: A549 (lung adenocarcinoma, WT); assay: Antiproliferative activity on A549 cells (Alamar Blue); type: cell-based; conditions: Homo sapiens, antiproliferative test
# Method in brief: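 Viability read by Alamar Blue fluorescence (λEx 540, λEm 590 nm) 3-5 h after dye addition, following 72 h compound treatment at 37° C in 2% FBS RPMI-1640, ≤1% DMSO. Seeding 5*10^3 cells/well, 16-18 h attachment. Four-parameter logistic model gave IC50.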
# [5] = Enzyme stability in human liver S9 fractions; type: in vitro ADME; conditions: 0.5 mg/mL pooled human liver S9 fractions; 10 μM compound; 37° C.; pH 7.4; read-out: Stability in liver S9 fractions, Clint
# Description: Determination of enzyme stability.
# Measuring of candidate enzyme stability enabled estimation of the stability of the compounds towards the action of liver enzymes.
# Enzyme degradation rate was measured by incubating the reaction mixture in a dry block thermostat at 37° C., said reaction mixture comprising 0.5 mg/mL of pooled human liver S9 fractions (XenoTech, USA, cat # H0610), 10 μM compound, 2 mM β-nicotinamide adenine dinucleotide (Carbosynth, UK, cat # NN10871) and 4 mM magnesium chloride in 0.1 M sodium-phosphate buffer, pH=7.4. The reaction was quenched with acetonitrile (100 μL of acetonitrile/100 μL of the reaction mixture). After quenching, the samples were centrifuged at 10000 rpm for 10 minutes. Supernatant fluid was tested by chromatographic technique using Agilent1200 (Agilent, USA). We used gradient elution (1 mL/min flow rate). A graph of the logarithm of substance's peak area as a function of time was made. The dependent factor of the line corresponded to the elimination rate constant K based on which the drug's half-life T½ and intrinsic clearance CLint were calculated:
# Based on the data obtained, candidate enzyme stability in human liver S9 fractions was determined (see Table 11).
# [6] = tested on: HepG2 cells; assay: General cytotoxicity on HepG2 cells; type: cell-based; conditions: therapeutic index, CC50 HepG2 / IC50 H1975
# Method in brief: (§2)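 HepG2 cells seeded at 2*10^4 cells per well and compounds added in DMEM with 2% FBS for 72 h at 37 °C. Viability read with Alamar Blue and CC50 derived as for IC50. Therapeutic index taken as HepG2 CC50 over H1975 IC50.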
# [7] = General cytotoxicity on HepG2 cells; type: cell-based; conditions: human; general cytotoxicity, HepG2 cells, 72 hours, average of several tests
# Method in brief: as §2
# [8] = Chemical stability in human blood plasma; type: in vitro ADME; conditions: pooled human blood plasma; 10 μm; 4 hours at 37° C.; substance amount remaining
# Method in brief: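 Percent of parent remaining was derived by comparing HPLC peak areas at time zero and after 4 h at 37 °C. Test compound was at 10 μM in human plasma pooled from ten donors, and proteins were precipitated with acetonitrile before analysis.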
# [9] = tested on: H1975 (lung adenocarcinoma, DM, L828R/T790M); assay: Antiproliferative activity on H1975 cells (Alamar Blue); type: cell-based; conditions: for IC50: Homo sapiens, NCI-H1975, H1975 cells; for SI IC50(A549)/IC50(DM): selectivity index, A549 vs H1975 cells
# Method in brief: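 IC50 was fitted with a four-parameter logistic model to Alamar Blue fluorescence (540/590 nm), read 3-5 h after dye addition. Before that, compounds acted on attached H1975 cells, 15*10^3 per well in 2% FBS RPMI-1640, for 72 h at 37 °C, DMSO no more than 1%.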
# [10] = Chemical stability in simulated gastric fluid (SGF); type: physicochemical; conditions: SGF without enzymes, pH 1,4; 10 μm; 2 hours at 37° C.; substance amount remaining
# Description: (§3) 1) Determination of chemical stability in simulated intestinal fluid, simulated gastric fluid and human blood plasma.
# (§4) SGF concentrate without enzymes, pH=1,4 (Sigma Ireland, cat #01651) was used as simulated gastric fluid. Initial candidate solution (10 mM in DMSO) was diluted with a SGF working solution to a concentration of 10 μm (test solution). The test solution was incubated in a dry block thermostat for 2 hours at 37° C. SIF concentrate without enzymes, pH=6.5 (Sigma Ireland, cat #55331) was used as simulated intestinal fluid. Initial candidate solution (10 mM in DMSO) was diluted with a SIF working solution to a concentration of 10 μm (test solution). The test solution was incubated in a dry block thermostat for 2 hours at 37° C. HPLC with Agilent 1200 liquid chromatography system (Agilent, USA) was employed to determine peak areas of the compounds in test samples, said peak areas corresponding to the initial test time (prior to incubation) and the final test time (after incubation in a dry block thermostat for 2 hours at 37° C.). We used gradient elution (1 mL/min flow rate). Substance amount in % in a sample after thermostatting was determined.
# (§5) The stability of the compounds was estimated.
# [11] = Chemical stability in simulated intestinal fluid (SIF); type: physicochemical; conditions: SIF without enzymes, pH 6.5; 10 μm; 2 hours at 37° C.; substance amount remaining
# Description: as §3, §4, §5
# [12] = average values obtained in several tests, Table 16, read-out: H1975 (DM) IC50
# [13] = antiproliferative test, Table 15, read-out: IC50 H1975 (DM)
SMILES,IC50 [1] [nM],IC50 [2] [nM],IC50 [3] [nM],"SI, IC50(WT)/IC50(DM) [3]",IC50 [4] [nM],Intrinsic clearance in human liver S9 fractions at 10 µM [5] [µL/min/mg],"Stability in blood plasma, % [8] [%]","IC50 [9, 12] [nM]","IC50 [9, 13] [nM]","TI, CC50/IC50 [6]",CC50 at 72 h [7] [nM],SI IC50(A549)/IC50(DM) [9],"Stability in SGF, % [10] [%]","Stability in SIF, % [11] [%]"
"C=CC(=O)Nc1cc(Nc2nccc(C(=O)c3ccc(OC4CCCCC4)cc3)n2)c(OC)cc1N(C)CCN(C)C [EGFR_3365_67, N-(5-((4-(4-(cyclohexyloxy)benzoyl)pyrimidin-2-yl)amino)-2-((2-(dimethylamino)ethyl)(methyl)amino)-4-methoxyphenyl)acrylamide]",26.3,97.5,10.5,9.27,2470,18.7,92.8,221,221,43,9460,11,–,–
"C=CC(=O)Nc1cc(Nc2nccc(C(=O)c3ccc(N4CCC(N(C)C)CC4)cc3)n2)c(OC)cc1N(C)CCN(C)C [EGFR_3365_121a, N-(2-((2-(dimethylamino)ethyl)(methyl)amino)-5-((4-(4-(4-(dimethylamino)piperidin-1-yl)benzoyl)pyrimidin-2-yl)amino)-4-methoxyphenyl) acrylamide]",13.5,29.6,0.96,30.92,3270,2.1,99.0,2.55,2.55,4649,11800,1284,–,–
"C=CC(=O)Nc1cc(Nc2cc(C(=O)c3ccc(OCC(C)C)cc3)ccn2)c(OC)cc1N(C)CCN(C)C [EGFR_3365_77, N-(2-((2-(dimethylamino)ethyl)(methyl)amino)-5-((4-(4-isobutoxybenzoyl)pyridin-2-yl)amino)-4-methoxyphenyl) acrylamide]",23.5,49.9,4.97,10.04,2170,–,–,249,249,33,8340,9,–,–
"C=CC(=O)Nc1cc(Nc2nccc(C(=O)c3ccc(OCC(C)C)cc3)n2)c(OC)cc1N(C)CCN(C)C [EGFR_3365_78, N-(2-((2-(dimethylamino)ethyl)(methyl)amino)-5-((4-(4-isobutoxybenzoyl)pyrimidin-2-yl)amino)-4-methoxyphenyl) acrylamide]",–,–,–,–,–,–,81.7,–,–,–,–,–,91.1,91.1
C=CC(=O)Nc1cc(Nc2cc(C(=O)c3ccc(N(CC)CC)cc3)ccn2)c(OC)cc1N(C)CCN(C)C,13.9,145,5.53,26.20,4420,–,–,34.2,34.2,229,7820,129,–,–

# Second part, led by results:
IC50 [1] [nM],IC50 [2] [nM],IC50 [3] [nM],"SI, IC50(WT)/IC50(DM) [3]",IC50 [4] [nM],Intrinsic clearance in human liver S9 fractions at 10 µM [5] [µL/min/mg],"Stability in blood plasma, % [8] [%]","IC50 [9, 12] [nM]","IC50 [9, 13] [nM]",SMILES,"TI, CC50/IC50 [6]",CC50 at 72 h [7] [nM],SI IC50(A549)/IC50(DM) [9],"Stability in SGF, % [10] [%]","Stability in SIF, % [11] [%]"
–,52,2.65,19.58,7190,9.2,87.3,1.18,1.18,"C=CC(=O)Nc1cc(Nc2nccc(C(=O)c3ccc(N4CCCC4)cc3OC)n2)c(OC)cc1N(C)CCN(C)C [EGFR_3365_123, N-(2-((2-(dimethylamino)ethyl)(methyl)amino)-4-methoxy-5-((4-(2-methoxy-4-(pyrrolidin-1-yl)benzoyl)pyrimidin-2-yl)amino)phenyl)acrylamide]",33959,40000,6105,–,–
–,109,2.93,37.17,84100,11.3,89.4,21.6,21.6,"C=CC(=O)Nc1cc(Nc2nccc(C(=O)c3ccc(NCCOC)cc3)n2)c(OC)cc1N(C)CCN(C)C [EGFR_3365_105, N-(2-((2-(dimethylamino)ethyl)(methyl)amino)-4-methoxy-5-((4-(4-((2-methoxyethyl)amino)benzoyl)pyrimidin-2-yl)amino)phenyl)acrylamide]",2114,45600,3898,–,–
5.19,30.9,2.37,13.01,16400,3.8,100.0,4.5,4.5,"C=CC(=O)Nc1cc(Nc2nccc(C(=O)c3ccc(N4CCN(C)CC4)cc3OC)n2)c(OC)cc1N(C)CCN(C)C [EGFR_3365_120, N-(2-((2-(dimethylamino)ethyl)(methyl)amino)-4-methoxy-5-((4-(2-methoxy-4-(4-methylpiperazin-1-yl)benzoyl)pyrimidin-2-yl)amino)phenyl)acrylamide]",6514,29300,3644,–,–
